Source: the NIST ThermoML archive (doi:10.1021/acs.jced.7b00740)
± gives the expanded uncertainty stated by the source.

What was measured:
[1] = Liquid; for mass density: 293.15 K, 101.33 kPa, Pycnometric method; for vapor or sublimation pressure: Ebulliometric method (Recirculating still)
[2] = refractive index (Na D-line) (dimensionless); details: 298.15 K; 101.33 kPa; Liquid; Standard Abbe refractometry

Row | SMILES | mass density [1] [kg/m3] | vapor or sublimation pressure ([1]; 386.53 K) [kPa] | refractive index [2] | vapor or sublimation pressure ([1]; 366.13 K) [kPa] | vapor or sublimation pressure ([1]; 378 K) [kPa] | vapor or sublimation pressure ([1]; 390.92 K) [kPa] | vapor or sublimation pressure ([1]; 351.51 K) [kPa] | vapor or sublimation pressure ([1]; 370.42 K) [kPa]
1 | CCCOCOCC [1-(ethoxymethoxy)propane] | 831.1 ± 0.7 | 101.33 ± 1 | 1.3818 ± 0.0005 | – | – | – | – | –
2 | CCCOCOC [1-(methoxymethoxy)propane] | 841.2 ± 0.7 | – | 1.3757 ± 0.0005 | 101.33 ± 1 | – | – | – | –
3 | COCOCOC [2,4,6-trioxaheptane] | 958 ± 0.8 | – | 1.379 ± 0.0005 | – | 101.33 ± 1 | – | – | –
4 | CCCCO [butan-1-ol] | 809.5 ± 0.7 | – | 1.3971 ± 0.0005 | – | – | 101.33 ± 1 | – | –
5 | CCO [ethanol] | 789.2 ± 0.7 | – | 1.3595 ± 0.0005 | – | – | – | 101.33 ± 1 | –
6 | CCCO [propan-1-ol] | 803.6 ± 0.7 | – | 1.3835 ± 0.0005 | – | – | – | – | 101.33 ± 1
